Test results as given in article PMC9061999, “Application of the Adverse Outcome Pathway Concept to In Vitro Nephrotoxicity Assessment: Kidney Injury due to Receptor-Mediated Endocytosis and Lysosomal Overload as a Case Study” (Frontiers in Toxicology, 2022).

Tested on: NRK-52E cells
Assay: Cathepsin D immunofluorescence (KE2, disruption of lysosomes)
Type: cell-based, rat
Conditions: for MOE, lowest across KEs: in vitro PODs in NRK-52E vs rat plasma concentrations after human equivalent or nephrotoxic doses
Procedure: For immunocytochemistry experiments, cells were seeded into 8-well chamber slides (Ibidi) at a density of 140 cells per µL in 300 µL growth medium and were allowed to grow for 48 h (NRK-52E) or 10 d (RPTEC/TERT1) respectively. For treatment, stock solutions (1,000 µM) of compounds dissolved in growth medium were freshly prepared and serial dilutions were made before exposure of cells for 24 h. After treatment, cells were washed twice with 150 µL PBS and fixed with 150 µL 4% paraformaldehyde in 1 x PBS for 10 min at room temperature. After fixation, cells were washed 10 min with 150 µL PBS on an orbital shaker followed by permeabilization with 150 µL 0.2% Triton X-100 in 1 x PBS for 5 min at room temperature on an orbital shaker. The permeabilized cells were washed twice with 1 x PBS (150 µL) for 10 min at room temperature on an orbital shaker and then incubated with 150 µL 5% BSA dissolved in 1 x PBS for 1 h at room temperature to block unspecific binding sites. After blocking, 100 µL primary antibody diluted 1:100 in 1% BSA in 1 x PBS were directly pipetted onto the cells and incubated overnight at 4°C. The following antibodies were employed for NRK-52E cells: Anti-LAMP-1 monoclonal IgG1 kappa mouse antibody (Santa Cruz; sc-20011), anti-Cathepsin D mouse monoclonal IgG2 kappa antibody (Santa Cruz; sc-377124); for RPTEC/TERT1 cells: Anti-LAMP-2 monoclonal mouse antibody (Santa Cruz; sc-18822), anti-Cathepsin D mouse monoclonal IgG2b kappa (Novus Biologicals; NBP1-04278); for both cell lines anti-megalin mouse monoclonal IgG1 antibody (Santa Cruz, sc-515772).
After incubation with primary antibody, cells were washed three times for 15 min with 0.2% Tween in 1 x PBS (150 µL) on an orbital shaker. Cells were incubated for 1 h at room temperature with 100 µL CFL 488-conjugated mouse IgG kappa binding protein (1:50) (m-IgGκ BP-CFL 488; Santa Cruz, sc-516176). After incubation the cells were washed three times for 15 min with 0.2% Tween in 1 x PBS on an orbital shaker and once with 150 µL sterile water. […] To preserve fluorescence 50–100 µL DAPI mounting medium (Vectashield®; Vectorlab, Biozol) was added to the cells and chamber slides were stored at 4°C in the dark until image acquisition.
Images were taken with a TCS SP5 II confocal microscope with an HCX PL APO lambda blue 63.0 × 1.40 OIL UV objective (Leica Microsystems, Wetzlar, GER) (n = 10 cells/treatment group). […] Before quantification, images were blinded and randomized. Quantification of fluorescence intensity was performed using NIH Image® software. […] The mean values of the pixel intensities were automatically calculated by the software and imported in Excel for further processing.

| Substance | MOE, lowest across KEs | BMC10, KE2 (in vitro POD from KE dose-response, cathepsin D intensity, NRK-52E, 24 h treatment, n = 3) [µM] | MOE, KE2 (margin of exposure: BMC10 in NRK-52E vs rat plasma/serum concentration (cmax or css)) |
| --- | --- | --- | --- |
| Colistin | 1.8 | – | – |
| Polymyxin B | 0.8 | 5.8 | 0.8 |
